Active and inactive are the calls of the source. No cut-off for these calls is given here.
Key:
IGROV-1 = test: Antitumor activity against human IGROV1 cells; format: functional
NCI-H522 = test: Antitumor activity against human NCI-H522 cells; format: functional

| SMILES | Activity (IGROV-1) | Activity (NCI-H522) |
| --- | --- | --- |
| C#C[C@@H](O)/C=C/CCCCCCCCCCCCCCCC | Active | Active |
| C#C[C@@H](O)/C=C/CCCCCCCCCCC(C)CCCC (stereo partly specified) | Active | Active |
| C#C[C@@H](O)/C=C/CCCCCCCCCCCCCC(C)C | Active | Active |

From ChEMBL document CHEMBL1150095, “Antitumor activity and stereochemistry of acetylenic alcohols from the sponge Cribrochalina vasculum” (1995)
